Reference: US20220324835A1 (Nurix Therapeutics, Inc., priority 2018, published 2022)

Key:
T-cell [1] = assay: IL-2 secretion from T-cells co-stimulated with anti-CD3 and anti-CD28 antibody (Biological Example 2); format: cell-based, human; conditions: Homo sapiens, T-cell, fold change over baseline (anti-CD3/anti-CD28 stimulated T-cells without inhibitor), read-out: IL-2 secretion Anti-CD3/Anti-CD28 stimulation; for fold induction at 0.3 µM: 0.3 μM Cbl-b inhibitor; for fold induction at 1 µM: 1 μM Cbl-b inhibitor
Summary of the method: (§1)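 No assay protocol given; T-cells stimulated with anti-CD3 alone or anti-CD3 plus anti-CD28, with or without Cbl-b inhibitor. Activation read as IL-2 secretion or CD25 surface staining, expressed as fold over baseline from uninhibited cells […].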

T-cell [2] = assay: CD25 cell surface staining on T-cells co-stimulated with anti-CD3 and anti-CD28 antibody (Biological Example 2); format: cell-based, human; conditions: Homo sapiens, T-cell, fold change over baseline (anti-CD3/anti-CD28 stimulated T-cells without inhibitor), read-out: CD25 staining Anti-CD3/Anti-CD28 stimulation; for fold induction at 0.3 µM: 0.3 μM Cbl-b inhibitor; for fold induction at 1 µM: 1 μM Cbl-b inhibitor
Summary of the method: as §1

T-cell [3] = assay: IL-2 secretion from T-cells stimulated with anti-CD3 antibody alone (Biological Example 2); format: cell-based, human; conditions: Homo sapiens, T-cell; 1 μM Cbl-b inhibitor; fold change over baseline (anti-CD3/anti-CD28 stimulated T-cells without inhibitor); read-out: IL-2 secretion Anti-CD3 stimulation
Cbl-b [4] = molecular target: T1, Cbl-b (Homo sapiens, UniProt Q13191); assay: Cbl-b inhibition assay (Cbl-b activity assay, FRET, Biological Example 1; 100 mM NaCl, 60 nM Src kinase); format: biochemical; conditions: upper bound stated in text lists; read-out: IC50 values in the Cbl-b inhibition assay of Biological Example 1
T1 sequence (Q13191 36-427): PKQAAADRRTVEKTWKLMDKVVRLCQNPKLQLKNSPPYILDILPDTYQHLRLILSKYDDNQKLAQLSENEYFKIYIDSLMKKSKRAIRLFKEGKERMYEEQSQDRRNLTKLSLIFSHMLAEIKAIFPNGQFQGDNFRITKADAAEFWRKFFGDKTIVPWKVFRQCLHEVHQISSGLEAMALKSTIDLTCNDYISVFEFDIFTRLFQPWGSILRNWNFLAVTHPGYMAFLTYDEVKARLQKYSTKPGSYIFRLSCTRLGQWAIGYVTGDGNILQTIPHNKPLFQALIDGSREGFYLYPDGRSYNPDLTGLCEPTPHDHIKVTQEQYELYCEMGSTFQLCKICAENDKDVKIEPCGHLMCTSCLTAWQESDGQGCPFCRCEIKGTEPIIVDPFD
Summary of the method: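 Inhibition is read as loss of FRET signal. The signal arises when Src-phosphorylated, N-terminal biotinylated Avi-Cbl-b (captured by streptavidin-terbium) binds UbcH5B carrying covalently linked Bodipy-Fluorescein-tagged ubiquitin.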

Cbl-b [5] = molecular target: T1, Cbl-b; assay: Cbl-b activity assay (Cbl-b inhibition assay), TR-FRET of Cbl-b interaction with UbcH5B-Ub; format: biochemical; conditions: assay buffer with 100 mM NaCl, 60 nM Src kinase; read-out: Cbl-b activity IC50
Summary of the method: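 TR-FRET readout of Cbl-b binding to Bodipy-fluorescein N-terminally labeled Ub conjugated to UbcH5B C85K, measured with compound present. After compound incubation, 60 nM Src kinase with 1 mM ATP and 5 mM MgCl2 (final) was added for 1.5 h, then a further 1 h incubation; asterisked values used 50 mM NaCl buffer and 30 nM Src.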

T-cell [6] = assay: CD25 cell surface staining on T-cells stimulated with anti-CD3 antibody alone (Biological Example 2); format: cell-based, human; conditions: Homo sapiens, T-cell; 1 μM Cbl-b inhibitor; fold change over baseline (anti-CD3/anti-CD28 stimulated T-cells without inhibitor); read-out: CD25 staining Anti-CD3 stimulation

C[C@H](Cc1nncn1C)c1cc(C2CCOCC2)nc(N2Cc3c(cccc3C(F)(F)F)C2=O)c1 [Example 686, (R)-2-(4-(1-(4-methyl-4H-1,2,4-triazol-3-yl)propan-2-yl)-6-(tetrahydro-2H-pyran-4-yl)pyridin-2-yl)-4-(trifluoromethyl)isoindolin-1-one]
fold induction at 0.3 µM (T-cell [1]): 1.01 to 2.5 | fold induction at 1 µM (T-cell [1]): 1.01 to 2.5 | fold induction at 0.3 µM (T-cell [2]): 1.01 to 1.3 | fold induction at 1 µM (T-cell [2]): 1.01 to 1.3 | fold induction at 1 µM (T-cell [3]): < 0.05 | IC50 (Cbl-b [4]): ≤ 1000 nM | IC50 (Cbl-b [5]): 301 to 1000 nM | fold induction at 1 µM (T-cell [6]): < 0.6

C[C@H](Cc1nncn1C)c1cc(N[C@@H]2CC[C@@H]2O)nc(N2Cc3c(cccc3C(F)(F)F)C2=O)c1 [Example 689a, 2-(6-(((1R,2S)-2-hydroxycyclobutyl)amino)-4-((R)-1-(4-methyl-4H-1,2,4-triazol-3-yl)propan-2-yl)pyridin-2-yl)-4-(trifluoromethyl)isoindolin-1-one]
fold induction at 0.3 µM (T-cell [1]): 1.01 to 2.5 | fold induction at 1 µM (T-cell [1]): 1.01 to 2.5 | fold induction at 0.3 µM (T-cell [2]): 1.01 to 1.3 | fold induction at 1 µM (T-cell [2]): 1.01 to 1.3 | fold induction at 1 µM (T-cell [3]): < 0.05 | IC50 (Cbl-b [4]): ≤ 1000 nM | IC50 (Cbl-b [5]): 301 to 1000 nM | fold induction at 1 µM (T-cell [6]): 0.601 to 0.8

C[C@H](Cc1nncn1C)c1cc(N[C@H]2CC[C@H]2O)nc(N2Cc3c(cccc3C(F)(F)F)C2=O)c1 [Example 689b, 2-(6-(((1S,2R)-2-hydroxycyclobutyl)amino)-4-((R)-1-(4-methyl-4H-1,2,4-triazol-3-yl)propan-2-yl)pyridin-2-yl)-4-(trifluoromethyl)isoindolin-1-one]
fold induction at 0.3 µM (T-cell [1]): 1.01 to 2.5 | fold induction at 1 µM (T-cell [1]): 1.01 to 2.5 | fold induction at 0.3 µM (T-cell [2]): 1.01 to 1.3 | fold induction at 1 µM (T-cell [2]): 1.01 to 1.3 | fold induction at 1 µM (T-cell [3]): < 0.05 | IC50 (Cbl-b [4]): ≤ 1000 nM | IC50 (Cbl-b [5]): 301 to 1000 nM | fold induction at 1 µM (T-cell [6]): < 0.6

CCOc1cc(NC(=O)c2cc(C)nc(C3CC3)n2)cc(C2(Cc3nncn3C)COC2)c1 [Example 690, 2-cyclopropyl-N-(3-ethoxy-5-(3-((4-methyl-4H-1,2,4-triazol-3-yl)methyl)oxetan-3-yl)phenyl)-6-methylpyrimidine-4-carboxamide]
fold induction at 0.3 µM (T-cell [1]): 2.51 to 5 | fold induction at 1 µM (T-cell [1]): 5 to 7.5 | fold induction at 0.3 µM (T-cell [2]): 1.01 to 1.3 | fold induction at 1 µM (T-cell [2]): 1.01 to 1.3 | fold induction at 1 µM (T-cell [3]): 0.051 to 0.1 | IC50 (Cbl-b [4]): ≤ 100 nM | IC50 (Cbl-b [5]): < 100 nM | fold induction at 1 µM (T-cell [6]): 0.801 to 1

CCOc1cc(N2Cc3c(cc([C@@H](C)N4CC[C@H](F)C4)cc3C(F)(F)F)C2=O)cc(C2(Cc3nncn3C)COC2)c1 [Example 691a, 2-(3-ethoxy-5-(3-((4-methyl-4H-1,2,4-triazol-3-yl)methyl)-oxetan-3-yl)phenyl)-6-((R)-1-((S)-3-fluoropyrrolidin-1-yl)ethyl)-4-(trifluoromethyl)-isoindolin-1-one]
fold induction at 0.3 µM (T-cell [1]): > 7.5 | fold induction at 1 µM (T-cell [1]): > 7.5 | fold induction at 0.3 µM (T-cell [2]): 1.31 to 1.5 | fold induction at 1 µM (T-cell [2]): 1.51 to 1.75 | fold induction at 1 µM (T-cell [3]): > 0.201 | IC50 (Cbl-b [4]): ≤ 100 nM | IC50 (Cbl-b [5]): < 100 nM | fold induction at 1 µM (T-cell [6]): > 1

CCOc1cc(N2Cc3c(cc([C@H](C)N4CC[C@H](F)C4)cc3C(F)(F)F)C2=O)cc(C2(Cc3nncn3C)COC2)c1 [Example 691b, 2-(3-ethoxy-5-(3-((4-methyl-4H-1,2,4-triazol-3-yl)methyl)oxetan-3-yl)phenyl)-6-((S)-1-((S)-3-fluoropyrrolidin-1-yl)ethyl)-4-(trifluoromethyl)isoindolin-1-one]
fold induction at 0.3 µM (T-cell [1]): 2.51 to 5 | fold induction at 1 µM (T-cell [1]): > 7.5 | fold induction at 0.3 µM (T-cell [2]): 1.31 to 1.5 | fold induction at 1 µM (T-cell [2]): 1.51 to 1.75 | fold induction at 1 µM (T-cell [3]): 0.151 to 0.2 | IC50 (Cbl-b [4]): ≤ 100 nM | IC50 (Cbl-b [5]): < 100 nM | fold induction at 1 µM (T-cell [6]): > 1

Cc1cc2c(c(C3CC3)n1)CN(c1cccc(C3(Cc4nncn4C)COC3)c1)C2=O [Example 692, 4-cyclopropyl-6-methyl-2-(3-(3-((4-methyl-4H-1,2,4-triazol-3-yl)methyl)oxetan-3-yl)phenyl)-2,3-dihydro-1H-pyrrolo[3,4-c]pyridin-1-one]
fold induction at 0.3 µM (T-cell [1]): 1.01 to 2.5 | fold induction at 1 µM (T-cell [1]): 2.51 to 5 | fold induction at 0.3 µM (T-cell [2]): 1.01 to 1.3 | fold induction at 1 µM (T-cell [2]): 1.31 to 1.5 | fold induction at 1 µM (T-cell [3]): 0.051 to 0.1 | IC50 (Cbl-b [4]): ≤ 100 nM | IC50 (Cbl-b [5]): < 100 nM | fold induction at 1 µM (T-cell [6]): 0.801 to 1

Cn1cnnc1CC1(c2cccc(N3Cc4c(cc(CN5CCCC(F)(F)C5)cc4C(F)(F)F)C3=O)c2)COC1 [Example 693, 6-((3,3-difluoropiperidin-1-yl)methyl)-2-(3-(3-((4-methyl-4H-1,2,4-triazol-3-yl)methyl)oxetan-3-yl)phenyl)-4-(trifluoromethyl)isoindolin-1-one]
fold induction at 0.3 µM (T-cell [1]): > 7.5 | fold induction at 1 µM (T-cell [1]): > 7.5 | fold induction at 0.3 µM (T-cell [2]): 1.51 to 1.75 | fold induction at 1 µM (T-cell [2]): 1.51 to 1.75 | fold induction at 1 µM (T-cell [3]): > 0.201 | IC50 (Cbl-b [4]): ≤ 100 nM | IC50 (Cbl-b [5]): < 100 nM | fold induction at 1 µM (T-cell [6]): > 1

Cc1cc(C(=O)Nc2cccc(C3(Cc4nncn4C)CCC3)c2)nc(C2CC2)n1 [Example 694, 2-cyclopropyl-6-methyl-N-(3-(1-((4-methyl-4H-1,2,4-triazol-3-yl)methyl)cyclobutyl)phenyl)pyrimidine-4-carboxamide]
fold induction at 0.3 µM (T-cell [1]): > 7.5 | fold induction at 1 µM (T-cell [1]): > 7.5 | fold induction at 0.3 µM (T-cell [2]): 1.31 to 1.5 | fold induction at 1 µM (T-cell [2]): 1.31 to 1.5 | fold induction at 1 µM (T-cell [3]): 0.051 to 0.1 | IC50 (Cbl-b [4]): ≤ 100 nM | IC50 (Cbl-b [5]): < 100 nM | fold induction at 1 µM (T-cell [6]): > 1

Cn1cnnc1CC1(c2cccc(N3Cc4c(cc(CN5CCC6(CC6)C5)cc4C(F)(F)F)C3=O)c2)CCC1 [Example 695, 6-((5-azaspiro[2.4]heptan-5-yl)methyl)-2-(3-(1-((4-methyl-4H-1,2,4-triazol-3-yl)methyl)cyclobutyl)phenyl)-4-(trifluoromethyl)isoindolin-1-one]
fold induction at 0.3 µM (T-cell [1]): > 7.5 | fold induction at 1 µM (T-cell [1]): > 7.5 | fold induction at 0.3 µM (T-cell [2]): 1.31 to 1.5 | fold induction at 1 µM (T-cell [2]): 1.31 to 1.5 | fold induction at 1 µM (T-cell [3]): > 0.201 | IC50 (Cbl-b [4]): ≤ 100 nM | IC50 (Cbl-b [5]): < 100 nM | fold induction at 1 µM (T-cell [6]): > 1

Cn1cnnc1CC1(c2cccc(N3Cc4c(ccnc4C(F)(F)F)C3=O)c2)COC1 [Example 696, 2-(3-(3-((4-methyl-4H-1,2,4-triazol-3-yl)methyl)oxetan-3-yl)phenyl)-4-(trifluoromethyl)-2,3-dihydro-1H-pyrrolo[3,4-c]pyridin-1-one]
fold induction at 0.3 µM (T-cell [1]): 1.01 to 2.5 | fold induction at 1 µM (T-cell [1]): 1.01 to 2.5 | fold induction at 0.3 µM (T-cell [2]): 1.01 to 1.3 | fold induction at 1 µM (T-cell [2]): 1.01 to 1.3 | fold induction at 1 µM (T-cell [3]): < 0.05 | IC50 (Cbl-b [4]): ≤ 100 nM | IC50 (Cbl-b [5]): < 100 nM | fold induction at 1 µM (T-cell [6]): 0.601 to 0.8

Cn1cnnc1CC1(c2cccc(N3Cc4c(cc(C(O)c5ccccc5)cc4C(F)(F)F)C3=O)c2)COC1 (centres unmarked) [Example 697, 6-(hydroxy(phenyl)methyl)-2-(3-(3-((4-methyl-4H-1,2,4-triazol-3-yl)methyl)oxetan-3-yl)phenyl)-4-(trifluoromethyl)isoindolin-1-one]
fold induction at 0.3 µM (T-cell [1]): 5 to 7.5 | fold induction at 1 µM (T-cell [1]): > 7.5 | fold induction at 0.3 µM (T-cell [2]): 1.31 to 1.5 | fold induction at 1 µM (T-cell [2]): 1.31 to 1.5 | fold induction at 1 µM (T-cell [3]): > 0.201 | IC50 (Cbl-b [4]): ≤ 100 nM | IC50 (Cbl-b [5]): < 100 nM | fold induction at 1 µM (T-cell [6]): > 1

Cc1cc(C(=O)Nc2cc(C3CC3)cc(C3(Cc4nncn4C)COC3)c2)nc(C2CC2)n1 [Example 698, 2-cyclopropyl-N-(3-cyclopropyl-5-(3-((4-methyl-4H-1,2,4-triazol-3-yl)methyl)oxetan-3-yl)phenyl)-6-methylpyrimidine-4-carboxamide]
fold induction at 0.3 µM (T-cell [1]): 2.51 to 5 | fold induction at 1 µM (T-cell [1]): > 7.5 | fold induction at 0.3 µM (T-cell [2]): 1.01 to 1.3 | fold induction at 1 µM (T-cell [2]): 1.31 to 1.5 | fold induction at 1 µM (T-cell [3]): > 0.201 | IC50 (Cbl-b [4]): ≤ 100 nM | IC50 (Cbl-b [5]): < 100 nM | fold induction at 1 µM (T-cell [6]): > 1
